# Patent publication US20220089575A1, “FARNESOID X RECEPTOR AGONISTS AND USES THEREOF” (Metacrine, Inc., priority 2017, published 2022)
# Target: T1, hFXR (Homo sapiens, UniProt Q96RI1)
# T1 construct: expressed in transfected cells; host or cells: CV-1 cells
# T1 sequence (Q96RI1 1-486): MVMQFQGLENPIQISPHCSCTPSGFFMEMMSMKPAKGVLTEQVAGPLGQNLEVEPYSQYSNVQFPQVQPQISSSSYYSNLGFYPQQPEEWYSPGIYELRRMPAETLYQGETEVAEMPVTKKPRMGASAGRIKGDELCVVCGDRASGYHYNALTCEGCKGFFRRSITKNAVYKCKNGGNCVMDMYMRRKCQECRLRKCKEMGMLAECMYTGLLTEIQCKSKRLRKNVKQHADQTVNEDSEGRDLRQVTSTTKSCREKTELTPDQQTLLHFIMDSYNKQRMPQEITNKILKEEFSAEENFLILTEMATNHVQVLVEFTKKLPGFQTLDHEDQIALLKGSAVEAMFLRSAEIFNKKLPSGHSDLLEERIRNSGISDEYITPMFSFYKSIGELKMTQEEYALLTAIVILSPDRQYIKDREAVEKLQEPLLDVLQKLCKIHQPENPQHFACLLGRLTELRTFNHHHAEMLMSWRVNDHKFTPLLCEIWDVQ
# T1 sequence (P19793 1-462 partner): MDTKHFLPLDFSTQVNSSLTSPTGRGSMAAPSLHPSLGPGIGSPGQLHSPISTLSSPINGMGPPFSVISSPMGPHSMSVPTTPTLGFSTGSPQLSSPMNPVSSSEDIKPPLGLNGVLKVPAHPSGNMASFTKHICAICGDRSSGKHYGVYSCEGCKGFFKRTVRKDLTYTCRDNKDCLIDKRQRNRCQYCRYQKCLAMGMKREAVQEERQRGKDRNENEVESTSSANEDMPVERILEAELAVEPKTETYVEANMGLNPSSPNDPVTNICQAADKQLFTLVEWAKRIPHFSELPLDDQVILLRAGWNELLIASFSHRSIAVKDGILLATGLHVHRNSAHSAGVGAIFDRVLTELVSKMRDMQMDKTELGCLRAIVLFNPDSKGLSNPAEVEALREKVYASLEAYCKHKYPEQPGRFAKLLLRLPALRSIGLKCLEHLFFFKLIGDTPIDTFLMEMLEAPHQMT
# Assay: In Vitro FXR Assay (TK): TK-ECRE-luc reporter in transfected CV-1 cells
# Type: cell-based
# Conditions: 18 hrs, luminescence, maximum efficacy of <25% of the Fexarmine control classified as '+'
# Protocol: CV-1 cells were seeded at a density of 2,000,000 cells in a T175 flask with DMEM+10% charcoal double-stripped FBS and incubated at 37° C. in 5% CO2 for 18 h (O/N).
# After 18 h of incubation, the medium in the T175 flask was changed with fresh DMEM+10% charcoal super-stripped serum. In a polypropylene tube, 2500 μL OptiMEM (Life Technologies, Cat #31985-062) was combined with expression plasmids for hFXR, hRXR, TK-ECRE-luc and pCMX-YFP. The tube was then briefly vortexed and incubated at room temperature for 5 minutes. Transfection reagent (X-tremeGENE HP from Roche, Cat #06 366 236 001) was added to the OptiMEM/plasmid mixture vortexed and incubated at room temperature for 20 minutes. Following incubation, the transfection reagent/DNA mixture complex was added to cells in the T175 flask and the cells were incubated at 37° C. in 5% CO2 for 18 h (O/N).
# Compounds were serially diluted in DMSO and added to transfected CV-1 cells. The cells were then incubated for 18 hrs. The next day cells were lysed and examined for luminescence.
row,Compound,EC50
1,"CNC(=O)O[C@H]1CC[C@H](C(=O)N(C[C@H]2CC[C@H](c3ccc(N(C)C)nc3)CC2)c2cccc(-c3cnc(C4CC4)s3)c2)CC1 [Compound 1, trans-4-((3-(2-Cyclopropylthiazol-5-yl)phenyl)((trans-4-(6-(dimethylamino)pyridin-3-yl)cyclohexyl)methyl)carbamoyl)cyclohexyl methylcarbamate]",≤ 0.25 µM
2,"COc1ccc([C@H]2CC[C@H](CN(c3cc(-c4cnn(C5CC5)c4)ccn3)C(=O)[C@H]3CC[C@H](CC(=O)O)CC3)CC2)nc1C [Compound 17.23, 2-(trans-4-((4-(1-Cyclopropyl-1H-pyrazol-4-yl)pyridin-2-yl)((trans-4-(5-methoxy-6-methylpyridin-2-yl)cyclohexyl)methyl)carbamoyl)cyclohexyl)acetic acid]",0.25 to 1 µM
3,"COc1ncc(-c2cccc(N(C[C@H]3CC[C@H](c4ccc(OC)c(C)c4)CC3)C(=O)[C@H]3CC[C@H](OCCO)CC3)c2)s1 [Compound 13.03, trans-4-(2-Hydroxyethoxy)-N-((trans-4-(4-methoxy-3-methylphenyl)cyclohexyl)methyl)-N-(3-(2-methoxythiazol-5-yl)phenyl)cyclohexanecarboxamide]",≤ 0.25 µM
4,"CNC(=O)O[C@H]1CC[C@H](C(=O)N(CC23CCC(c4ccc(OC)c(C)c4)(CC2)CC3)c2cccc(-c3cc(C4CC4)ns3)c2)CC1 [Compound 2.08, 4-((3-(3-Cyclopropylisothiazol-5-yl)phenyl)((4-(4-methoxy-3-methylphenyl)bicyclo[2.2.2]octan-1-yl)methyl)carbamoyl)cyclohexyl trans-methylcarbamate]",≤ 0.25 µM
5,"COc1ccc([C@H]2CC[C@H](CN(c3cc(-c4cnn(C(C)C)c4)ccn3)C(=O)[C@H]3CC[C@H](OC(=O)N4CCOCC4)CC3)CC2)nc1C [Compound 6.40, trans-4-((4-(1-Isopropyl-1H-pyrazol-4-yl)pyridin-2-yl)((trans-4-(5-methoxy-6-methylpyridin-2-yl)cyclohexyl)methyl)carbamoyl)cyclohexyl morpholine-4-carboxylate]",≤ 0.25 µM
6,"COC(=O)N[C@H]1CC[C@H](C(=O)N(C[C@H]2CC[C@H](c3ccc(OC)c(C)n3)CC2)c2cc(-c3coc(C4CC4)n3)ccn2)CC1 [Compound 26.21, Methyl (trans-4-((4-(2-cyclopropyloxazol-4-yl)pyridine-2-yl)((trans-4-(5-methoxy-6-methylpyridin-2-yl)cyclohexyl)methyl)carbamoyl)cyclohexyl)carbamate]",≤ 0.25 µM
7,"COc1ccc([C@H]2CC[C@H](CN(c3cccc(-c4cnn(C5CC5)c4)c3)C(=O)[C@H]3CC[C@H](OC(=O)NC4CNC4)CC3)CC2)cc1C [Compound 4.18, trans-4-((3-(1-Cyclopropyl-1H-pyrazol-4-yl)phenyl)((trans-4-(4-methoxy-3-methylphenyl)cyclohexyl)methyl)carbamoyl)cyclohexyl azetidin-3-ylcarbamate]",≤ 0.25 µM
8,"COc1ccc([C@H]2CC[C@H](CN(c3cc(-c4cnc(C5CC5)s4)ccn3)C(=O)[C@H]3CC[C@H](CC(=O)O)CC3)CC2)cc1C [Compound 20.02, 2-(trans-4-((4-(2-Cyclopropylthiazol-5-yl)pyridin-2-yl)((trans-4-(4-methoxy-3-methylphenyl)cyclohexyl)methyl)carbamoyl)cyclohexyl)acetic acid]",≤ 0.25 µM

# Other lines, results leading:
row,EC50,Compound
1,≤ 0.25 µM,"COc1ccc([C@H]2CC[C@H](CN(c3cccc(-c4cnn(C5CC5)c4)c3)C(=O)[C@H]3CC[C@H](OC(=O)N4CCS(=O)(=O)CC4)CC3)CC2)cc1C [Compound 7.30, trans-4-((3-(1-Cyclopropyl-1H-pyrazol-4-yl)phenyl)((trans-4-(4-methoxy-3-methylphenyl)cyclohexyl)methyl)carbamoyl)cyclohexyl thiomorpholine-4-carboxylate1,1-dioxide]"
2,≤ 0.25 µM,"CNC(=O)O[C@H]1CC[C@@H](C(=O)N(CC2CCC(c3ccc(OC)c(C#N)c3)CC2)c2cc(-c3cnn(C(C)C)c3)ccn2)CC1 (stereo partly drawn) [Compound 5.19, cis-4-(((4-(3-Cyano-4-methoxyphenyl)cyclohexyl)methyl)(4-(1-isopropyl-1H-pyrazol-4-yl)pyridin-2-yl)carbamoyl)cyclohexyl methylcarbamate]"
3,≤ 0.25 µM,"COc1ccc([C@H]2CC[C@H](CN(c3cccc(-c4cnn(C5CC5)c4)c3)C(=O)[C@H]3CC[C@H](c4nnn[nH]4)CC3)CC2)cc1C [Compound 33.01, trans-N-(3-(1-Cyclopropyl-1H-pyrazol-4-yl)phenyl)-N-((trans-4-(4-methoxy-3-methylphenyl)cyclohexyl)methyl)-4-(2H-tetrazol-5-yl) cyclohexanecarboxamide]"
4,≤ 0.25 µM,"COc1ccc([C@H]2CC[C@H](CN(c3cccc(-c4cnn(C5CC5)c4)c3)C(=O)[C@H]3CC[C@H](OC(=O)N4CCN(C)CC4)CC3)CC2)cc1C [Compound 6.25, trans-4-((3-(1-Cyclopropyl-1H-pyrazol-4-yl)phenyl)((trans-4-(4-methoxy-3-methylphenyl)cyclohexyl)methyl)carbamoyl)cyclohexyl 4-methylpiperazine-1-carboxylate]"
5,≥ 1 µM,"CNCCOCC(=O)N[C@H]1CC[C@H](C(=O)N(C[C@H]2CC[C@H](c3ccc(OC)c(C)c3)CC2)c2cccc(-c3cnc(C4CC4)s3)c2)CC1 [Compound 32.06, trans-N-(3-(2-Cyclopropylthiazol-5-yl)phenyl)-N-((trans-4-(4-methoxy-3-methylphenyl)cyclohexyl)methyl)-4-(2-(2-(methylamino)ethoxy)acetamido) cyclohexanecarboxamide]"
6,≤ 0.25 µM,"COc1ccc([C@H]2CC[C@H](CN(c3cccc(-c4cnn(C5CC5)c4)c3)C(=O)[C@H]3CC[C@H](NC(=O)C4CC(OC)C4)CC3)CC2)cc1C (stereo partly drawn) [Compound 30, trans-N-(3-(1-Cyclopropyl-1H-pyrazol-4-yl)phenyl)-N-((trans-4-(4-methoxy-3-methylphenyl)cyclohexyl)methyl)-4-(3-methoxycyclobutanecarboxamido)cyclohexanecarboxamide]"
7,≤ 0.25 µM,COc1ccc([C@H]2CC[C@H](CN(c3cc(-c4coc(C5CC5)n4)ccn3)C(=O)[C@H]3CC[C@H](OC(=O)N4CC(S(C)(=O)=O)C4)CC3)CC2)nc1C [Compound 6.61]
8,≤ 0.25 µM,"COc1ccc([C@H]2CC[C@H](CN(c3cccc(-c4cnn(C5CC5)c4)c3)C(=O)[C@H]3CC[C@H](OC(=O)NCC(=O)O)CC3)CC2)cc1C [Compound 7.18, 2-((((trans-4-((3-(1-Cyclopropyl-1H-pyrazol-4-yl)phenyl)((trans-4-(4-methoxy-3-methylphenyl)cyclohexyl)methyl)carbamoyl)cyclohexyl)oxy)carbonyl)amino)acetic acid]"
9,≤ 0.25 µM,"CCNC(=O)O[C@H]1CC[C@H](C(=O)N(C[C@H]2CC[C@H](c3ccc(OC)c(C)n3)CC2)c2cc(-c3coc(C4CC4)n3)ccn2)CC1 [Compound 5.47, trans-4-((4-(2-Cyclopropyloxazol-4-yl)pyridine-2-yl)((trans-4-(5-methoxy-6-methylpyridin-2-yl)cyclohexyl)methyl)carbamoyl)cyclohexyl ethylcarbamate]"
10,≤ 0.25 µM,"CCNC(=O)O[C@H]1CC[C@H](C(=O)N(C[C@H]2CC[C@H](c3ccc(OC)c(C#N)c3)CC2)c2cc(-c3cnn(C(C)C)c3)ccn2)CC1 [Compound 5, trans-4-(((trans-4-(3-Cyano-4-methoxyphenyl)cyclohexyl)methyl)(4-(1-isopropyl-1H-pyrazol-4-yl)pyridin-2-yl)carbamoyl)cyclohexyl ethylcarbamate]"
